This is an account of results in PubChem BioAssay (NCI).

Test systems include NCI-H460 lung; SF-268 CNS; K-562 leukemia; SK-MEL-28 melanoma; MOLT-4 leukemia; MCF7 breast; HT29 colon; A549 NSCLC; SF-539 CNS; RXF 393 renal.
Test in all cases: DTP human tumour cell line panel, 48 h

For orientation: GI50 means the concentration that inhibits growth by half. In general, TGI refers to the concentration giving total growth inhibition. A low value points to more potent growth arrest.

“And” between values parts separate entries of the source, which are not always exact repeats. Equal values may be shown once.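 Interpolation was linear, between the two tested concentrations surrounding the appropriate level; five concentrations were tested over 48 hours in 96-well plates. GI50 is the concentration that inhibits growth by half. TGI: total growth inhibition.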 Bounds are passed on as bounds.

Turning to `C=C1CC[C@@H]2[C@](C)(COC(C)=O)[C@H](OC(C)=O)CC[C@@]2(C)[C@@H]1CC(Nc1ccc(S(=O)(=O)NC(C)=O)cc1)C1=CCOC1=O` (stereo not given in full), the GI50 with NCI-H460 lung is 6720 nM; in the experiment on SF-268 CNS, 8780 nM; with K-562 leukemia, 2580 nM; in the experiment with SK-MEL-28 melanoma, 3.69 µM; in the experiment with MOLT-4 leukemia, 2200 nM; in the experiment on MCF7 breast, 1920 nM. In addition, the GI50 is 1570 nM in the experiment on HT29 colon, 8410 nM in the experiment on A549 NSCLC, 2390 nM with SF-539 CNS and 1960 nM in the experiment on RXF 393 renal. The TGI with NCI-H460 lung is 17.9 µM; in the experiment with SF-268 CNS it was 20.5 µM; with K-562 leukemia it was 17.6 µM; in the experiment with SK-MEL-28 melanoma it was 13.2 µM; with MOLT-4 leukemia, 6.66 µM; in the experiment on MCF7 breast, 11.3 µM. The TGI with HT29 colon turned out to be 3.55 µM; with A549 NSCLC, 18.3 µM; with SF-539 CNS, 7.77 µM; with RXF 393 renal, 4.69 µM.
As for `Cc1cc(S(=O)(=O)Nc2nc3ccccc3o2)c(SCc2ccccc2)cc1Cl`, the GI50 with NCI-H460 lung is 15500 nM; with SF-268 CNS, 18900 nM; in the experiment with K-562 leukemia, 31800 nM; in the experiment with SK-MEL-28 melanoma it was 25.6 µM; with MOLT-4 leukemia, 24400 nM; with MCF7 breast it was 22400 nM. The GI50 in the experiment with HT29 colon was 33800 nM; in the experiment on A549 NSCLC it was 21700 nM; in the experiment with SF-539 CNS, 19100 nM; in the experiment on RXF 393 renal it was 29500 nM. Also, the TGI in the experiment with NCI-H460 lung was 52.2 µM; in the experiment with SF-268 CNS it was 47.7 µM; in the experiment on K-562 leukemia, above 100 µM; in the experiment on SK-MEL-28 melanoma, 62.9 µM; in the experiment with MOLT-4 leukemia, above 100 µM; in the experiment on MCF7 breast, 78.3 µM. Moreover, the TGI in the experiment on HT29 colon is above 100 µM; with A549 NSCLC it was 45.3 µM; in the experiment on SF-539 CNS, 40.8 µM; with RXF 393 renal it was 61.5 µM.
With `CCN(CCCN(C)C)Cc1cc(I)cc(C)c1O`, the GI50 in the experiment with NCI-H460 lung was 16400 nM; in the experiment with SF-268 CNS, 18700 nM; with K-562 leukemia it was 6950 nM; in the experiment on SK-MEL-28 melanoma, 18 µM; in the experiment on MOLT-4 leukemia, 17900 nM; in the experiment on MCF7 breast, 17400 nM. In addition, the GI50 in the experiment with HT29 colon was 14700 nM; in the experiment with A549 NSCLC, 28300 nM; in the experiment on SF-539 CNS, 14800 nM; in the experiment on RXF 393 renal, 17100 nM. In addition, the total growth inhibition concentration (TGI) came out at 38 µM with NCI-H460 lung; 45.7 µM in the experiment on SF-268 CNS; 23.3 µM in the experiment with K-562 leukemia; 36.3 µM with SK-MEL-28 melanoma; 36.5 µM in the experiment on MOLT-4 leukemia; 35.8 µM in the experiment with MCF7 breast. The TGI worked out at 32.4 µM with HT29 colon, 90 µM in the experiment with A549 NSCLC, 29 µM with SF-539 CNS and 51.1 µM in the experiment with RXF 393 renal.
For `CN(c1ncccc1CNc1nc(Nc2ccc3c(c2)CC(=O)N3)ncc1C(F)(F)F)S(C)(=O)=O`, the GI50 with NCI-H460 lung is 2140 nM and 2950 nM; in the experiment on SF-268 CNS, 2330 nM and 2650 nM; with K-562 leukemia, 2970 nM and 3450 nM; in the experiment with SK-MEL-28 melanoma, 2.07 µM and 2.92 µM; in the experiment with MOLT-4 leukemia it was 2900 nM and 2670 nM; in the experiment on MCF7 breast, 948 nM and 1100 nM. Moreover, the GI50 with HT29 colon was 1750 nM and 2330 nM; in the experiment with A549 NSCLC, 2560 nM and 2920 nM; in the experiment with SF-539 CNS, 1960 nM and 2350 nM; in the experiment on RXF 393 renal it was 1610 nM and 1480 nM. For the same compound, the TGI in the experiment with NCI-H460 lung was 7.32 µM and > 10 µM; in the experiment on SF-268 CNS it was 13 µM and > 10 µM; in the experiment on K-562 leukemia, above 100 µM; with SK-MEL-28 melanoma, 6.58 µM and > 10 µM; with MOLT-4 leukemia, 7.47 µM and 7.55 µM; in the experiment on MCF7 breast, above 27 µM. Also, the TGI in the experiment with HT29 colon was 4.79 µM and 8.54 µM; with A549 NSCLC, 12.2 µM and > 10 µM; in the experiment with SF-539 CNS, 5.18 µM and 6.93 µM; in the experiment with RXF 393 renal, 3.98 µM and 4.08 µM.
Take `COc1ccc(C(c2cc(OC)c(OC)c(OC)c2)n2ccnc2)cc1O` (stereo not given): the GI50 in the experiment on NCI-H460 lung is 377 nM; with SF-268 CNS, 731 nM; in the experiment on K-562 leukemia it was 225 nM; in the experiment on MOLT-4 leukemia, 565 nM; in the experiment on MCF7 breast, 339 nM; in the experiment with HT29 colon it was 312 nM. For the same compound, the GI50 in the experiment with A549 NSCLC is 838 nM; in the experiment on SF-539 CNS, 217 nM. Also, the TGI was above 100 µM in the experiment with NCI-H460 lung; above 100 µM with SF-268 CNS; above 100 µM in the experiment on K-562 leukemia; above 100 µM in the experiment with MOLT-4 leukemia; above 100 µM in the experiment on MCF7 breast; 1.02 µM in the experiment with HT29 colon. Besides, the TGI in the experiment with A549 NSCLC was above 100 µM; in the experiment on SF-539 CNS it was 0.552 µM.
As to `COc1ccc2c(c1OC)C[C@@H]1c3c(cc4c(c3-2)OCO4)CCN1C`, the total growth inhibition concentration (TGI) in the experiment with NCI-H460 lung is 91.4 µM; in the experiment with SF-268 CNS it was above 100 µM; in the experiment with K-562 leukemia it was 56.6 µM; in the experiment on SK-MEL-28 melanoma, above 100 µM; in the experiment with MOLT-4 leukemia it was 47.4 µM; in the experiment on MCF7 breast it was above 100 µM. For the same compound, the TGI in the experiment on HT29 colon was 41.3 µM; with A549 NSCLC, above 100 µM; with SF-539 CNS, 50 µM; with RXF 393 renal, 66.4 µM.
As to `COc1ccc(C2CC(c3cccc(Nc4ccnc5cc(Cl)ccc45)c3)=NN2C=O)cc1` (stereo not given), the GI50 in the experiment on NCI-H460 lung was 415 nM; in the experiment with SF-268 CNS, 1370 nM; in the experiment with K-562 leukemia, 330 nM; in the experiment with SK-MEL-28 melanoma, 1.13 µM; in the experiment on MOLT-4 leukemia, 487 nM; in the experiment with MCF7 breast, 361 nM. Besides, the GI50 with HT29 colon was 349 nM; in the experiment with A549 NSCLC, 527 nM; in the experiment with SF-539 CNS, 785 nM; with RXF 393 renal, 883 nM. Moreover, the TGI with NCI-H460 lung is above 100 µM; in the experiment on SF-268 CNS, above 100 µM; with K-562 leukemia, above 100 µM; in the experiment on SK-MEL-28 melanoma, 25.6 µM; with MOLT-4 leukemia, above 100 µM; in the experiment on MCF7 breast, above 100 µM. Moreover, the concentration for total growth inhibition (TGI) in the experiment with HT29 colon was found to be 1.54 µM; in the experiment with A549 NSCLC, 18.3 µM; in the experiment with SF-539 CNS it was 8.42 µM; with RXF 393 renal it was 7.39 µM.
In the case of `c1cc(NNc2cccc(-c3nn[nH]n3)c2)cc(-c2nn[nH]n2)c1`, the TGI with NCI-H460 lung, with SF-268 CNS, in the experiment with K-562 leukemia, in the experiment on SK-MEL-28 melanoma, with MCF7 breast and in the experiment with HT29 colon was above 100 µM in each case. Besides, the TGI in the experiment on A549 NSCLC, with SF-539 CNS and in the experiment with RXF 393 renal was above 100 µM in each case.
